In US10378041B2, “Effervescent compositions and uses thereof” (3M INNOVATIVE PROPERTIES COMPANY, priority 2010, dated 2019):

Tested on: Pseudomonas putida (ATCC 31483)
Assay: Bacterial growth in growth medium containing ceftazidime hydrate (96-well plate, turbidity)
Format: cell-based
Design: key to bacterial growth (turbidity): “+” indicates growth; “−” indicates no growth
Conditions: overnight at 37° C.
Experimental: Samples of growth media were prepared by dissolving a tablet of each composition in 1 liter of recovery media (modified Listeria Recovery Broth (MLRB), available from 3M Company; St. Paul, Minn.). The tablets dissolved within 4.5 minutes. A sample of growth media was prepared as a control by dissolving 10 mg of Ceftazidime hydrate powder (product number C3809-5G available from Sigma Aldrich; St. Louis, Mo.) in 1 liter of MLRB.
A bacterial suspension was prepared by inoculating a pure culture of Pseudomonas putida (ATCC 31483 obtained from ATCC, Manassas, Va.) into tryptic soy broth (BD™ Tryptic Soy Broth; Becton Dickinson; Sparks, Md.) and incubating at 37° C. The suspension was diluted 1:1,000 in SMB (Standard Methods Buffer; 3M Company; St. Paul, Minn.). The diluted suspension was further diluted 1:10,000-diluted in SMB growth medium containing ceftazidime concentrations shown in Table 10. Four duplicates of each sample were pipetted into a 96-well plate as follows: Growth Control with no Ceftazidime hydrate; an Undiluted Control with 10 micrograms Ceftazidime hydrate/microliter of the bacterial suspension; and each dilution of inoculated medium containing the concentration of ceftazidime hydrate shown in the Table 10. The 96-well plate was incubated overnight at 37° C. and examined visually for bacterial growth. Turbidity in the well indicated growth.

In the case of `CC(C)(O/N=C(\C(=O)N[C@@H]1C(=O)N2C(C(=O)[O-])=C(C[n+]3ccccc3)CS[C@H]12)c1csc(N)n1)C(=O)O` [Powder Control, Ceftazidime hydrate], the “bacterial growth (turbidity)” value (2.5 mcg CDH/microliter) is reported as “+”, the “bacterial growth (turbidity)” value (3.75 mcg CDH/microliter) is reported as “+” and the “bacterial growth (turbidity)” value (5.0 mcg CDH/microliter) is reported as “−”. For the same molecule, the “bacterial growth (turbidity)” value (6.25 mcg CDH/microliter) was “−”, the “bacterial growth (turbidity)” value (7.5 mcg CDH/microliter) was “−” and the “bacterial growth (turbidity)” value (8.75 mcg CDH/microliter) was “−”. The “bacterial growth (turbidity)” value (Undiluted Control - 10 mcg CDH/microliter) was “−” and the “lowest concentration of ceftazidime hydrate showing no growth” value (delivered in tablet or powder) was 5 mcg/microliter of sample.
